Laboratory results reported in paper PMC5511861, “DS16570511 is a small-molecule inhibitor of the mitochondrial calcium uniporter” (Cell Death Discovery, 2017).

How the values were obtained:
rat perfused heart = assay: Cardiac functions (heart rate, contractility) in rat isolated perfused heart
Protocol: We then investigated the effect of DS16570511 on cardiac functions in the perfused heart. We observed that heart rate was unaffected by DS16570511 in the range of 3–30 μM (Figure 7a). […] The increase of contractility was diminished by washout of the drug (Figure 7b), showing that the cardiac effect of DS16570511 is reversible.
Figure 7 Effects of DS16570511 on cardiac functions. (a) Effect of DS16570511 on heart rate in rat perfused heart. Data are mean with S.E.M. from more than four independent samples. (b) Representative data showing acute and reversible effect of DS16570511 on contractility. (c) Effect of DS16570511 on contractility in rat perfused heart. Plotted are values of pretreatment and 5 min after treatment of 10 or 30 μM DS16570511.
The hearts were rapidly excised from 9-week-old male Wistar rats and perfused at 37 °C with Krebs-Ringer perfusion buffer (127.2 mM NaCl, 4.7 mM KCl, 2.5 mM CaCl2, 1.2 mM KH2PO4, 1.2 mM MgSO4, 25 mM NaHCO3 and 5.5 mM glucose (pH 7.4)) equilibrated with 95% O2/5% CO2. A balloon was inserted through the left atrium into the left ventricle. Heart rate and contractility were continuously recorded with a data acquisition system (PowerLab, ADInstruments, Bella Vista, NSW, Australia).

[1] = biological target: T1, mitochondrial calcium uniporter (Homo sapiens, UniProt Q8NE86); assay: Aequorin assay: serum-induced mitochondrial Ca2+ influx in HEK293A cells expressing mitochondria-targeted aequorin; format: cell-based; design: endogenous in cells; host or cells: HEK293A cells stably expressing mitochondria-targeted aequorin; conditions: 10% fetal bovine serum, 20 min pretreatment, read-out: IC50, inhibition of serum-induced mitochondrial Ca2+ influx
T1 sequence (Q8NE86 51-351): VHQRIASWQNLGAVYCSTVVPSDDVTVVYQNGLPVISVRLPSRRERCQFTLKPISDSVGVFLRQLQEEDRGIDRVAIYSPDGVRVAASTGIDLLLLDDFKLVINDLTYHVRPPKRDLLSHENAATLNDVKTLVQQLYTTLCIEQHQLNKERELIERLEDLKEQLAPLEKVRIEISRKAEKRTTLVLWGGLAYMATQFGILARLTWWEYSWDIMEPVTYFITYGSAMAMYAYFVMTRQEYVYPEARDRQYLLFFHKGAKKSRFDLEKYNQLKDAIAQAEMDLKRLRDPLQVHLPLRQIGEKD
T1 sequence (Q9H4I9 48-107 partner limits assumed): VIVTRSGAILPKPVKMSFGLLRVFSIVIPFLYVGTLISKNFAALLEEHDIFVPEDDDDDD
Protocol: In the first screening using the cell-based assay, application of 10% fetal bovine serum to the cells triggered a rapid increase of mitochondrial Ca^2+ level (Figure 1a). Pretreatment of the cells with DS16570511 inhibited the serum-induced mitochondrial Ca^2+ influx with an IC50 of 7 μM (Figures 1a and b). In order to eliminate broad channel inhibitors or chemicals affecting the aequorin-based detection system, a counter assay was carried out using HEK293A cells expressing aequorin in cytosol. In the assay, the concentration of DS16570511 used to decrease the serum-induced cytosolic Ca^2+ increase by 50% was ~50 μM.
Figure 1 DS16570511 inhibits mitochondrial Ca^2+ influx in HEK293A cells. (a) Representative raw data of serum-induced mitochondrial Ca^2+ influx in HEK293A cells. (b) Effect of DS16570511 on serum-induced mitochondrial Ca^2+ influx. The area under the curve of temporal aequorin activities is used for calculation of inhibitory activities. […]
For dynamic measurements of mitochondrial Ca^2+ levels in intact cells, HEK293A cells were stably transfected with pIRES-puro vector expressing mitochondria-targeted aequorin.[20] […] For induction of intracellular Ca^2+, the cells were treated with 10% fetal bovine serum, and luminescence levels were measured by using a Centro LB960 luminometer (Berthold Technologies, Oak Ridge, TN, USA).

[2] = system: membrane potential of pig heart mitochondria; assay: Mitochondrial membrane potential assay (JC-10) in pig heart mitochondria; format: biochemical; conditions: JC-10, 5 min incubation
Excerpt: Next we analyzed the mechanism of action of DS16570511. The previous studies implicated two possible inhibitory mechanisms for the mitochondrial Ca^2+ uptake: (1) direct blockade of the calcium uniporter and (2) disruption of the membrane potential.[20],[21] Mitochondrial Ca^2+ uptake is mediated by electrical potential across the mitochondrial inner membrane, which is generated by the oxidative phosphorylation system. […] To examine effects on the mitochondrial membrane potential, fluorescent indicator JC-10 was used in mitochondria from pig heart.
(a) Effect of FCCP on Ca^2+ uptake of pig heart mitochondria. […] Relative membrane potential 0 or 100% is defined as value of 1 μM FCCP-treated mitochondria or vehicle-treated mitochondria, respectively. Data are mean with S.E.M. from three (a) or four (b) independent samples.
Pig heart mitochondria were prepared as described above and suspended in the swelling buffer containing 1 μM JC-10. The protein concentration of the solution was 5 mg/ml. Five minutes after incubation of the mitochondria with DS16570511 at room temperature, fluorescence intensities were measured by a FlexStation 3 (Molecular Devices, LLC, Sunnyvale, CA, USA) using the green channel (excitation/emission wavelength: 485/538 nm) or the red channel (excitation/emission wavelength: 485/612 nm).

Cc1onc(-c2c(Cl)cccc2Cl)c1CNc1cccc(C(=O)c2cn(CCCC(=O)O)c3ccccc23)c1 [DS16570511]
effect on heart rate (rat perfused heart; 3–30 μM): unaffected
effect on cardiac contractility (rat perfused heart; 10 or 30 μM, 5 min after treatment): increased cardiac contractility
reversibility of the cardiac effect on washout (rat perfused heart; washout of the drug): reversible
IC50 [1]: 7 µM
effect on mitochondrial membrane potential [2]: not reduced
